Earlier results on three compounds are cited in PMC8622523, “New Diterpenoids from Mesona procumbens with Antiproliferative Activities Modulate Cell Cycle Arrest and Apoptosis in Human Leukemia Cancer Cells” (Pharmaceuticals, 2021).

In one data set the test system is hepatoma. Further details: method as in PMID 30835539. The note with it: read-out: anti-hepatoma IC50; cited from earlier work.
The next data set deals with HL-60 cells. Further details: method as in PMID 20851175. The note with it: cited from earlier work.
In the next data set the test system is KYSE-150 cells. To be noted: cited from earlier work.
Another data set deals with KYSE-450 cells. The note with it: cited from earlier work.

pIC50: −log10 of the molar value. Where only a bound is given, the exact number is not on record here.

Broadly, the pIC50 is −log10 of the IC50, conventionally taken in molar units. Take “4α-hydroxy-17,19-dinor-ent-kaurane-16-one”: the pIC50 in the data set with hepatoma was less than 4.00.

For the compound `C=C1C(=O)[C@@]23[C@H](O)C[C@@H]4C(C)(C)C(=O)CC[C@@]4(C)[C@@H]2CC[C@@H]1[C@H]3O` [glaucocalyxin A], in the data set with HL-60 cells, the apoptosis induction entry is recorded as “induced apoptosis in HL-60 cells”. With `C=C1C(=O)[C@@]23[C@@H]4O[C@H]5O[C@@]2(O)[C@@H](O)[C@@H]2C(C)(C)CCC[C@]52[C@@H]3CC[C@@H]14` [xerophilusin B], the “apoptosis and cell cycle arrest” value in the data set on KYSE-150 cells is “induce apoptosis and G2/M phase cell cycle arrest”; in the data set with KYSE-450 cells, “induce apoptosis and G2/M phase cell cycle arrest”.
